Assays:
[1] = system: MOLT-4; assay: panel of 60 human tumor cell lines, growth inhibition (Leukemia)
[2] = system: SK-MEL-5; assay: panel of 60 human tumor cell lines, growth inhibition (Melanoma); details: for Percent Growth: 8K-MEL-5
[3] = system: UACC-257; assay: as above
[4] = system: U251; assay: panel of 60 human tumor cell lines, growth inhibition (CNS Cancer); details: for Percent Growth: U251
[5] = system: 786-0; assay: panel of 60 human tumor cell lines, growth inhibition (Renal Cancer)
[6] = system: A498; assay: as above
[7] = system: HS 578T; assay: panel of 60 human tumor cell lines, growth inhibition (Breast Cancer); details: for Percent Growth: HS 578T
[8] = system: T-47D; assay: as above; details: for Percent Growth: T-47D

## C=C1C(=O)O[C@H]2[C@H]1CC/C(COC(=O)NCCc1ccccn1)=C\CC[C@@]1(C)O[C@@H]21 [JVM 61, ((1aR,7aS,10aS,10bS,E)-1a-methyl-8-methylene-9-oxo-1a,2,3,6,7,7a,8,9,10a,10b-decahydrooxireno[2′,3′:9,10]cyclodeca[1,2-b]furan-5-yl)methyl-(2-(pyridin-2-yl)ethyl)carbamate]
[1]; Homo sapiens, MOLT-4
  GI50: 5.54 µM
[1]; Homo sapiens, MOLT-4, read-out: LC50
  CC50: > 100 µM
[1]; Homo sapiens, MOLT-4, read-out: TGI
  IC (TGI): 25 µM
[1]; MOLT-4, Log10 Concentration −4.0
  Percent Growth: −47%
[1]; MOLT-4, Log10 Concentration −5.0
  Percent Growth: 31%
[1]; MOLT-4, Log10 Concentration −6.0
  Percent Growth: 105%
[1]; MOLT-4, Log10 Concentration −7.0
  Percent Growth: 106%
[1]; MOLT-4, Log10 Concentration −8.0
  Percent Growth: 106%
[2]; Log10 Concentration −4.0
  Percent Growth: −94%
[2]; Log10 Concentration −5.0
  Percent Growth: 50%
[2]; Log10 Concentration −6.0
  Percent Growth: 96%
[2]; Log10 Concentration −7.0
  Percent Growth: 95%
[2]; Log10 Concentration −8.0
  Percent Growth: 96%
[2]; Homo sapiens, SK-MEL-5
  GI50: 9.78 µM
[2]; Homo sapiens, SK-MEL-5, read-out: LC50
  CC50: 49.1 µM
[2]; Homo sapiens, SK-MEL-5, read-out: TGI
  IC (TGI): 22.1 µM
[3]; Homo sapiens, UACC-257
  GI50: 4.59 µM
[3]; Homo sapiens, UACC-257, read-out: LC50
  CC50: 53.7 µM
[3]; UACC-257
  TGI: 1.95E−5
[3]; UACC-257, Log10 Concentration −4.0
  Percent Growth: −81%
[3]; UACC-257, Log10 Concentration −5.0
  Percent Growth: 33%
[3]; UACC-257, Log10 Concentration −6.0
  Percent Growth: 83%
[3]; UACC-257, Log10 Concentration −7.0
  Percent Growth: 92%
[3]; UACC-257, Log10 Concentration −8.0
  Percent Growth: 97%
[4]; Homo sapiens, U-251
  GI50: 12.5 µM
[4]; Homo sapiens, U-251, read-out: LC50
  CC50: 55.6 µM
[4]; Homo sapiens, U-251, read-out: TGI
  IC (TGI): 25.4 µM
[4]; Log10 Concentration −4.0
  Percent Growth: −89%
[4]; Log10 Concentration −5.0
  Percent Growth: 65%
[4]; Log10 Concentration −6.0
  Percent Growth: 93%
[4]; Log10 Concentration −7.0
  Percent Growth: 91%
[4]; Log10 Concentration −8.0
  Percent Growth: 97%
[5]; 786-0, Log10 Concentration −4.0
  Percent Growth: −93%
[5]; 786-0, Log10 Concentration −5.0
  Percent Growth: 15%
[5]; 786-0, Log10 Concentration −6.0
  Percent Growth: 96%
[5]; 786-0, Log10 Concentration −7.0
  Percent Growth: 101%
[5]; 786-0, Log10 Concentration −8.0
  Percent Growth: 101%
[5]; Homo sapiens, 786-0
  GI50: 3.7 µM
[5]; Homo sapiens, 786-0, read-out: LC50
  CC50: 39.8 µM
[5]; Homo sapiens, 786-0, read-out: TGI
  IC (TGI): 13.8 µM
[6]; A498, Log10 Concentration −4.0
  Percent Growth: −97%
[6]; A498, Log10 Concentration −5.0
  Percent Growth: 55%
[6]; A498, Log10 Concentration −6.0
  Percent Growth: 87%
[6]; A498, Log10 Concentration −8.0
  Percent Growth: 87%
[6]; Homo sapiens, A498
  GI50: 16.8 µM
[6]; Homo sapiens, A498, read-out: LC50
  CC50: 49.1 µM
[6]; Homo sapiens, A498, read-out: TGI
  IC (TGI): 25.1 µM
[7]; Log10 Concentration −4.0
  Percent Growth: −25%
[7]; Log10 Concentration −5.0
  Percent Growth: 28%
[7]; Log10 Concentration −6.0
  Percent Growth: 94%
[7]; Log10 Concentration −7.0
  Percent Growth: 96%
[7]; Log10 Concentration −8.0
  Percent Growth: 98%
[7]; Homo sapiens, Hs-578T
  GI50: 4.66 µM
[7]; Homo sapiens, Hs-578T, read-out: LC50
  CC50: ≥ 100 µM
[7]; Homo sapiens, Hs-578T, read-out: TGI
  IC (TGI): 33.9 µM
[8]; Homo sapiens, T47D
  GI50: 6.19 µM
[8]; Homo sapiens, T47D, read-out: LC50
  CC50: > 100 µM
[8]; Homo sapiens, T47D, read-out: TGI
  IC (TGI): 25 µM
[8]; Log10 Concentration −4.0
  Percent Growth: −43%
[8]; Log10 Concentration −5.0
  Percent Growth: 35%

From US9469650B2, “Melampomagnolide B derivatives” (BOARD OF TRUSTEES OF THE UNIVERSITY OF ARKANSAS, priority 2013, dated 2016)
